Activity calls are given as the source filed them. No cut-off for these calls is given here.
Columns and labels:
[1] = biological target: T1, 5-hydroxytryptamine receptor 1A (Homo sapiens, UniProt P08908); assay: Displacement of [3H]WAY 100635 from human recombinant 5HT1A receptor expressed in CHO cells; assay type: cell-based
T1 sequence (P08908 whole entry): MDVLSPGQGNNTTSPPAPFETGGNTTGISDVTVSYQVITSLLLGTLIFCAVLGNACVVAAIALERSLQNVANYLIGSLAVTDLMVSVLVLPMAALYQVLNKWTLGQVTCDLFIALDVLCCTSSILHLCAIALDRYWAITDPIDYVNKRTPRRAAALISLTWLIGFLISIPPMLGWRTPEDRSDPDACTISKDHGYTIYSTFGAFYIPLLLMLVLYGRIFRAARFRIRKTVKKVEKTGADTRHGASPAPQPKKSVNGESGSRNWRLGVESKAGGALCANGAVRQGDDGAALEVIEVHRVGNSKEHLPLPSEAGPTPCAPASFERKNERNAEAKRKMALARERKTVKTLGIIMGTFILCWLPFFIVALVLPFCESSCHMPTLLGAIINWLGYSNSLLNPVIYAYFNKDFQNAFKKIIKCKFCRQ

[2] = biological target: T2, 5-hydroxytryptamine receptor 1A (Homo sapiens) (UniProt P08908); assay: Intrinsic activity at human recombinant 5HT1A receptor expressed in CHO cells by [35S]GTP-gamma-S binding assay relative to 5-hydroxytryptamine; assay type: functional, cell-based
T2 sequence (whole entry): T1 sequence (P08908 whole entry)

[3] = biological target: T3, 5-hydroxytryptamine receptor 1B (Homo sapiens, UniProt P28222); assay: Displacement of [3H]5-HT from human recombinant 5HT1B receptor expressed in CHO cells; assay type: cell-based
[4] = biological target: T3, 5-hydroxytryptamine receptor 1B; assay: Intrinsic activity at human recombinant 5HT1B receptor expressed in CHO cells by [35S]GTP-gamma-S binding assay relative to 5-hydroxytryptamine; assay type: functional, cell-based
[5] = biological target: T4, 5-hydroxytryptamine receptor 1D (Homo sapiens, UniProt P28221); assay: Displacement of [3H]5-HT from human recombinant 5HT1D receptor expressed in CHO cells; assay type: cell-based
[6] = biological target: Sodium-dependent serotonin transporter (Rattus norvegicus, UniProt P31652)
Description: Inhibition of [3H]5-HT uptake at SERT in rat cortical synaptosomes

[7] = biological target: T1, 5-hydroxytryptamine receptor 1A; assay: Displacement of [3H]-WAY100635 from human recombinant 5HT1A receptor expressed in CHO cells
Cytochrome P450 3A4 = Cytochrome P450 3A4 (Homo sapiens, UniProt P08684); assay: Inhibition of CYP3A4; assay type: ADME
Cytochrome P450 1A2 = biological target: T5, Cytochrome P450 1A2 (Homo sapiens, UniProt P05177); assay: Inhibition of CYP1A2; assay type: ADME
T5 sequence (P05177 whole entry): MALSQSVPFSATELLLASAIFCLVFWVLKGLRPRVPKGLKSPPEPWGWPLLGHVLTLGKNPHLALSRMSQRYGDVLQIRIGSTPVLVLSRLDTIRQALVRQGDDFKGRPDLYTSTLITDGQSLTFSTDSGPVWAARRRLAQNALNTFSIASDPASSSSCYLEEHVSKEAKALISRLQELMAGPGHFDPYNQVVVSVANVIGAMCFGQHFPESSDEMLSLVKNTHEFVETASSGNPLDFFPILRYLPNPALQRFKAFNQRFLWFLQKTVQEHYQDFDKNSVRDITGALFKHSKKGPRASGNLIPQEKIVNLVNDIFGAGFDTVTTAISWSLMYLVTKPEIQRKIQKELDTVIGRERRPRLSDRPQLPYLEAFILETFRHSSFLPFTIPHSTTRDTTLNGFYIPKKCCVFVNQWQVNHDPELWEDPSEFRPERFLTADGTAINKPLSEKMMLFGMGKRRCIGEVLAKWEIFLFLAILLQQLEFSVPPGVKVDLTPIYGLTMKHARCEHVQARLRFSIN

Cytochrome P450 2C9 = Cytochrome P450 2C9 (Homo sapiens, UniProt P11712); assay: Inhibition of CYP2C9; assay type: ADME
Cytochrome P450 2C19 = Cytochrome P450 2C19 (Homo sapiens, UniProt P33261); assay: Inhibition of CYP2C19; assay type: ADME
Cytochrome P450 2D6 = Cytochrome P450 2D6 (Homo sapiens, UniProt P10635); assay: Inhibition of CYP2D6; assay type: ADME
[8] = biological target: T4, 5-hydroxytryptamine receptor 1D; assay: Intrinsic activity at human recombinant 5HT1D receptor expressed in CHO cells by [35S]GTP-gamma-S binding assay relative to 5-hydroxytryptamine; assay type: functional, cell-based
[9] = Clearance in rat blood at 1 mg/kg, iv; assay type: ADME, organism-based; parameters: dose 1 mg/kg, route intravenous
[10] = Half life in rat at 1 mg/kg, iv; assay type: ADME, organism-based; parameters: dose 1 mg/kg, route intravenous; details: in vivo
[11] = Ratio of drug level in brain to blood in rat at 3 mg/kg, po; assay type: ADME, organism-based; parameters: dose 3 mg/kg, route oral
Liver microsomes [12] = assay: Metabolic stability assessed as intrinsic clearance in rat liver microsomes; assay type: ADME, Microsome
Liver microsomes [13] = assay: Metabolic stability assessed as intrinsic clearance in human liver microsomes; assay type: ADME, Microsome
[14] = Volume of distribution at steady state in rat at 1 mg/kg, iv; assay type: ADME, organism-based; parameters: dose 1 mg/kg, route intravenous; details: in vivo, read-out: Vdss
[15] = Selectivity for human recombinant 5HT1A receptor over rat cortical SERT
[16] = Selectivity for human recombinant 5HT1B receptor over rat cortical SERT
[17] = Selectivity for human recombinant 5HT1D receptor over rat cortical SERT
[18] = Oral bioavailability in rat at 3 mg/kg; assay type: ADME, organism-based; details: in vivo
[19] = biological target: T6, Alpha-1A adrenergic receptor (Homo sapiens) (UniProt P35348); assay: Inhibition of adrenergic alpha1 receptor at 1 uM
T6 sequence (whole entry): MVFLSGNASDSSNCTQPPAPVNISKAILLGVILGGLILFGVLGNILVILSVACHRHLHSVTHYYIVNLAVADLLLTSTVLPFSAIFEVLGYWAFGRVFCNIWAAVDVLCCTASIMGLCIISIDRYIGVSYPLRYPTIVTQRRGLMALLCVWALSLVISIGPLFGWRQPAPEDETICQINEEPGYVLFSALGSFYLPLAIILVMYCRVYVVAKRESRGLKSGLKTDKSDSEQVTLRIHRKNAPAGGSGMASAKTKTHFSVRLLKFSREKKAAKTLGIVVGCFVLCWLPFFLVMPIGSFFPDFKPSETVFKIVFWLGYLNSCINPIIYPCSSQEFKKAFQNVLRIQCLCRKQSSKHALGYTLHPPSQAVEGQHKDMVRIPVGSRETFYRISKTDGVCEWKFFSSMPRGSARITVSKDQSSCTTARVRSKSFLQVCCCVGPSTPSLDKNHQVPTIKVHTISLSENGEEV

[20] = biological target: Histamine H2 receptor (Homo sapiens) (UniProt P25021); assay: Inhibition of histamine H2 receptor at 1 uM
[21] = biological target: T7, Muscarinic acetylcholine receptor M1 (Homo sapiens) (UniProt P11229); assay: Inhibition of muscarinic M1 receptor at 1 uM
T7 sequence (whole entry): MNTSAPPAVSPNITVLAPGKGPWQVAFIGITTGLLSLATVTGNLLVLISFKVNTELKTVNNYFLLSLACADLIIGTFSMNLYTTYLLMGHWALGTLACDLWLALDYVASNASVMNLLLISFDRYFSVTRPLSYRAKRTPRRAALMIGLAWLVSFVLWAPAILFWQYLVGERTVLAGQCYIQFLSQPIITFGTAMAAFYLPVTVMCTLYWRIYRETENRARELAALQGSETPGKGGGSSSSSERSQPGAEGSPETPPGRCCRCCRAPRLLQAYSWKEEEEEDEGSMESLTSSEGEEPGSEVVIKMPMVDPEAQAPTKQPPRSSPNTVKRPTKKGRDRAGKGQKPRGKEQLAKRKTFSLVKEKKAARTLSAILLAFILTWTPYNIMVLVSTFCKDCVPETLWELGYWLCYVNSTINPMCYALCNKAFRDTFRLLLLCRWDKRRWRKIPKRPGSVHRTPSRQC

T3 sequence (P28222 whole entry): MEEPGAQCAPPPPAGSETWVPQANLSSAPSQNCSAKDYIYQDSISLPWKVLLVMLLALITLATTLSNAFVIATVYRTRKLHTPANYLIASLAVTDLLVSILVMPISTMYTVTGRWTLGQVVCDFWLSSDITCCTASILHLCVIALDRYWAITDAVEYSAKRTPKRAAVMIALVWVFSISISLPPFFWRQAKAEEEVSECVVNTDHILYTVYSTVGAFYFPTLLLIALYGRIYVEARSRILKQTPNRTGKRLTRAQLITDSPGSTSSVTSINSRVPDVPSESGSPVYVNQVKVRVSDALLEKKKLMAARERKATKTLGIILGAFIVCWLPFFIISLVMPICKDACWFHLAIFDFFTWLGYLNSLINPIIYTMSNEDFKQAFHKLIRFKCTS
T4 sequence (P28221 whole entry): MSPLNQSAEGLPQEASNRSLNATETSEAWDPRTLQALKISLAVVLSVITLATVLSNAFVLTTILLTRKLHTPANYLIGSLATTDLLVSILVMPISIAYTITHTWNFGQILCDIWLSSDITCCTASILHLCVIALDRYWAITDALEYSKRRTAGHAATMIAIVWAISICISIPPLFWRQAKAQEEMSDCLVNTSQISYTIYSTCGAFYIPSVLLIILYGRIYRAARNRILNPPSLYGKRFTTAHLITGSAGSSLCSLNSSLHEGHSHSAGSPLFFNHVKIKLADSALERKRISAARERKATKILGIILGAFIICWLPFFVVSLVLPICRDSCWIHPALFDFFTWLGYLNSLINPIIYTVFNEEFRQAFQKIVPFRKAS
Sequence of Sodium-dependent serotonin transporter (P31652 whole entry): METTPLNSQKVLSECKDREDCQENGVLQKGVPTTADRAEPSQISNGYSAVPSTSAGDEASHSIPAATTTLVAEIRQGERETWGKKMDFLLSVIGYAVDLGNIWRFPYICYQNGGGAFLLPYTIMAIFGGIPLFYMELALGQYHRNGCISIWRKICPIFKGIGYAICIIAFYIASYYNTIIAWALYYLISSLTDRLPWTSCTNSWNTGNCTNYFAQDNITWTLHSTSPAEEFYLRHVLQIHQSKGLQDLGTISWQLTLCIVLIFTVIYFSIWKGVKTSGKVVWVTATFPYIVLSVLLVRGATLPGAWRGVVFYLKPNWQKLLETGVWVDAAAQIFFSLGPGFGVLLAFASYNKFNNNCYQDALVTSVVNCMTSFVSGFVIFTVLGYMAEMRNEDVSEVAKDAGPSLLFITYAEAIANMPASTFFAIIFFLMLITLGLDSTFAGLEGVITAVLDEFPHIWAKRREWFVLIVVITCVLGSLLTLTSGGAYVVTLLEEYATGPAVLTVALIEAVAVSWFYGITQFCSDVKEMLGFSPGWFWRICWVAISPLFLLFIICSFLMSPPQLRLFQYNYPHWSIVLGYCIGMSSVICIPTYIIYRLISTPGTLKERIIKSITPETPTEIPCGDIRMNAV
Sequence of Cytochrome P450 2D6 (P10635 whole entry): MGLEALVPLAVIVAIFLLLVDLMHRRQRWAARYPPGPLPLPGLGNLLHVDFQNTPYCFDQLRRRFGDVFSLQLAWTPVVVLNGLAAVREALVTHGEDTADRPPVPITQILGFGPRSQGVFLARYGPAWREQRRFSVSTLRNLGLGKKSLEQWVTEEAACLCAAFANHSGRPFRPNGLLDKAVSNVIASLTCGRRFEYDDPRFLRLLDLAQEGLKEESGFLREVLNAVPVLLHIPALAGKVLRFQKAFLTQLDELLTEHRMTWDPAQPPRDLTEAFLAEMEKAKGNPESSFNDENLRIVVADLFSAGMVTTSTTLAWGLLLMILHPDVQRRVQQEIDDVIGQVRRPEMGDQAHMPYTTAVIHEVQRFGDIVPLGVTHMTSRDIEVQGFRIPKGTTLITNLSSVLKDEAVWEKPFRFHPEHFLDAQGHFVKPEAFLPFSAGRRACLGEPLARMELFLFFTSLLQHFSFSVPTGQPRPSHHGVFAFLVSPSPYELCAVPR
Sequence of Cytochrome P450 2C19 (P33261 whole entry): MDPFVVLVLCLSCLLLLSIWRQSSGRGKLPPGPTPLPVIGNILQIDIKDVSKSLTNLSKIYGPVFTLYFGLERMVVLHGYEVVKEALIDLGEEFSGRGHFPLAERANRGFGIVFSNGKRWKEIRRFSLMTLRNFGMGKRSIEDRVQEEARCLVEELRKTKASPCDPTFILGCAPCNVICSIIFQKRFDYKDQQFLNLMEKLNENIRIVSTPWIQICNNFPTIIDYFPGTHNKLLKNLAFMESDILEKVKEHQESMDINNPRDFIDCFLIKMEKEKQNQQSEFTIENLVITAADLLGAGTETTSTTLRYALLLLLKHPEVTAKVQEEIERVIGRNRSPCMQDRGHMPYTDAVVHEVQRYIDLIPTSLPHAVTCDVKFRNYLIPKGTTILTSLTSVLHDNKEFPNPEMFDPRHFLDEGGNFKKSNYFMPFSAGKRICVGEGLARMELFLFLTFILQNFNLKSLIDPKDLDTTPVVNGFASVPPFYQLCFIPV
Sequence of Cytochrome P450 3A4 (P08684 whole entry): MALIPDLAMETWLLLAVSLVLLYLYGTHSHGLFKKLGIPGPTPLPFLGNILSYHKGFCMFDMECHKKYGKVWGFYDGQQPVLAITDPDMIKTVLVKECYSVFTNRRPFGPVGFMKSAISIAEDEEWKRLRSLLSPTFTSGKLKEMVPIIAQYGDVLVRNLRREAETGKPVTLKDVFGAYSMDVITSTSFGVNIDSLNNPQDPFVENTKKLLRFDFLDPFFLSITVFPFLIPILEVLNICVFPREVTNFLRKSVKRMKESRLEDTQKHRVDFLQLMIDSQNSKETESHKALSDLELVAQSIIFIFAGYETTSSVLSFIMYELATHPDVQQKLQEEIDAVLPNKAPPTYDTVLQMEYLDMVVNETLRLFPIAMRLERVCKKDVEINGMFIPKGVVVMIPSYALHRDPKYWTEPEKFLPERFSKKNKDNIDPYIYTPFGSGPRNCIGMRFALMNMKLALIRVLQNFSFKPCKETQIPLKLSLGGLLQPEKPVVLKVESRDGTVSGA
Sequence of Cytochrome P450 2C9 (P11712 whole entry): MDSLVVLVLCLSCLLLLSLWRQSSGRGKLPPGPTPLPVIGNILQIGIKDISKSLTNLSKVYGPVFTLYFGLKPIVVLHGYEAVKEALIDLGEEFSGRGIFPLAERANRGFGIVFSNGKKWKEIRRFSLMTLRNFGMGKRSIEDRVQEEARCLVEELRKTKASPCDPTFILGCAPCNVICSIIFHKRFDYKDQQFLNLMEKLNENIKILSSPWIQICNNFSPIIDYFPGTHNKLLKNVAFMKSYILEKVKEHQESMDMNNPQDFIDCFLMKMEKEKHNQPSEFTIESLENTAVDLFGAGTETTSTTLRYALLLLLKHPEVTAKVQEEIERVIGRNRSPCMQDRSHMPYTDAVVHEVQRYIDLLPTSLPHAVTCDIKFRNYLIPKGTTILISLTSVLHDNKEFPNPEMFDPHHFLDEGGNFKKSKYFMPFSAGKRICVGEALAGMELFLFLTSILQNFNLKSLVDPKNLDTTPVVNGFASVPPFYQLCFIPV
Sequence of Histamine H2 receptor (Homo sapiens) (P25021 whole entry): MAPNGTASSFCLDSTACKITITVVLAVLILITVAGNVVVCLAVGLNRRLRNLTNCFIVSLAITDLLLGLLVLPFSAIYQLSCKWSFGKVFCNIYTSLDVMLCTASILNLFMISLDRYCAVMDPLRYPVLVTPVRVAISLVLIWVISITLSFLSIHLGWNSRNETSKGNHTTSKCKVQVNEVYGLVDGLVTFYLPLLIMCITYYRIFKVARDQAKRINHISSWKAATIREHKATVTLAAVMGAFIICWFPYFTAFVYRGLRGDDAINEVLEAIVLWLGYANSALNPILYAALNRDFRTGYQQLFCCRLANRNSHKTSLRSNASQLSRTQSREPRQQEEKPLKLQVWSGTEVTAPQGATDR

Row | SMILES | Ki [1] [nM] | Intrinsic activity [2] | Ki [3] [nM] | Intrinsic activity [4] | Ki [5] [nM] | Ki [6] [nM] | Ki [7] [nM] | IC50 (Cytochrome P450 3A4) [nM] | IC50 (Cytochrome P450 1A2) [nM] | IC50 (Cytochrome P450 2C9) [nM] | IC50 (Cytochrome P450 2C19) [nM] | IC50 (Cytochrome P450 2D6) [nM] | Intrinsic activity [8] | clearance [9] [mL/min/kg] | half-life [10] [h] | other results
1 | Cc1ccc2c(OCCN3CCC(Cc4ccc5c(c4)N(C(C)C)C(=O)CO5)CC3)cccc2n1 | 5.01 | 0 | 39.8 | 0.6 | 3.98 | 100 | 0.631 |  |  |  |  |  |  |  |  | 
2 | Cc1ccc2c(OCCN3CCN(Cc4ccc5c(c4)N(C)C(=O)CO5)CC3)cccc2n1 | 10 | 0 | 7.94 | 0.8 | 0.501 | 100 | 1.58 | > 20000 | > 20000 | > 20000 | > 20000 | > 20000 |  |  |  | 
3 | Cc1ccc2c(OCCN3CCN(Cc4cc(F)c5c(c4)N(C)C(=O)CO5)CC3)cccc2n1 | 7.94 | 0 | 0.2 | 0.7 | 0.398 | 50.1 |  | > 19000 | > 19000 | > 19000 | > 19000 | > 19000 | 0.6 | 14 | 1.3 | Kp [11]: 3.6
4 | CCN1C(=O)COc2ccc(CC3CCN(CCOc4cccc5nc(C)ccc45)CC3)cc21 | 3.16 | 0.1 | 3.98 | 0.4 | 1.58 | 126 | 0.251 |  |  |  |  |  | 0.6 | 31 | 1.6 | CL (Liver microsomes [12]): 7.7 mL/min/g; CL (Liver microsomes [13]): 2.8 mL/min/g; Vd [14]: 2.5 L/kg; Ratio pKi [15]: 30; Ratio pKi [16]: 30; Ratio pKi [17]: 30
5 | Cc1ccc2c(OCCN3CCN(Cc4ccc5c(c4F)N(C)C(=O)CO5)CC3)cccc2n1 | 3.16 | 0 | 1.58 | 0.4 | 0.501 | 79.4 |  | > 16000 | > 16000 | > 16000 | > 16000 | > 16000 | 0.6 | 34 | 2 | bioavailability [18]: 65%; Kp [11]: 2.7
6 | Cc1ccc2c(OCCN3CCN(Cc4ccc5c(c4)NC(=O)CO5)CC3)cccc2n1 | 63.1 | 0 | 100 | 0.6 | 10 | 25.1 | 1.58 |  |  |  |  |  |  |  |  | 
7 | COc1ccc(NC(=O)c2ccc(-c3ccc(-c4noc(C)n4)cc3C)cc2)cc1N1CCN(C)CC1 |  |  |  | 0.3 |  |  |  |  |  |  |  |  | 0.8 |  |  | 
8 | Cc1ccc2c(OCCN3CCN(Cc4ccc5c(c4)N(CCc4ccccc4)C(=O)CO5)CC3)cccc2n1 | 31.6 |  | 25.1 |  | 2 |  | 1.26 | 9000 | 17000 | 4000 | 5000 | 14000 |  |  |  | 
9 | CCCCN1C(=O)COc2ccc(CN3CCN(CCOc4cccc5nc(C)ccc45)CC3)cc21 |  |  | 31.6 |  | 3.16 | 158 | 1.26 |  | 4000 | 12000 | 16000 |  |  |  |  | 
10 | CCN1C(=O)COc2ccc(CN3CCN(CCOc4cccc5nc(C)ccc45)CC3)c(F)c21 | 2.51 | 0.1 | 1.58 | 0.5 | 1.26 | 200 |  | > 9000 | > 9000 | > 9000 | > 9000 | > 9000 | 0.7 | 23 | 2.8 | bioavailability [18]: 34%; Kp [11]: 1.2
11 | CCN1C(=O)COc2ccc(CN3CCN(CCOc4cccc5nc(C)ccc45)CC3)cc21 | 39.8 | 0.1 | 25.1 | 0.4 | 1 | 2000 | 1.26 |  | 18000 | 14000 |  |  | 0.3 |  |  | 
12 | CCCN1C(=O)COc2ccc(CN3CCN(CCOc4cccc5nc(C)ccc45)CC3)cc21 | 25.1 | 0.1 | 31.6 | 0.4 | 2 | 158 | 0.251 |  |  | 18000 |  |  | 0.5 |  |  | 
13 | Cc1ccc2c(OCCN3CCN(Cc4ccc5c(c4)N(CC(C)C)C(=O)CO5)CC3)cccc2n1 |  |  | 31.6 |  | 2.51 | 1580 | 2 |  |  |  |  |  |  |  |  | 
14 | Cc1ccc2c(OCCN3CCC(Cc4ccc5c(c4)N(C)C(=O)CO5)CC3)cccc2n1 | 6.31 | 0 | 6.31 | 0.5 | 2.51 | 39.8 | 0.398 |  |  |  |  |  |  | 57 | 1.3 | CL (Liver microsomes [12]): 4.9 mL/min/g; CL (Liver microsomes [13]): 0.9 mL/min/g; Vd [14]: 4.2 L/kg; bioavailability [18]: 35%; Kp [11]: 1.3; Activity [19]: Active; Activity [20]: Active; Activity [21]: Active
15 | Cc1ccc2c(OCCN3CCC(Cc4ccc5c(c4)NC(=O)CO5)CC3)cccc2n1 |  | 0.1 |  | 0.5 |  |  |  |  |  |  |  |  | 0.5 | 50 | 1.3 | CL (Liver microsomes [12]): 3.4 mL/min/g; CL (Liver microsomes [13]): 1.2 mL/min/g; Vd [14]: 4.4 L/kg; bioavailability [18]: 40%
16 | Cc1ccc2c(OCCN3CCN(Cc4ccc5c(c4)N(Cc4ccccc4)C(=O)CO5)CC3)cccc2n1 |  |  | 63.1 |  | 6.31 | 316 | 3.98 | 12000 | 11000 | 7000 | 11000 | 15000 |  |  |  | 
